Source: publication PMC9897788, “Design, synthesis and cytotoxic evaluation of novel bis-thiazole derivatives as preferential Pim1 kinase inhibitors with in vivo and in silico study” (Journal of Enzyme Inhibition and Medicinal Chemistry, 2023)

Key:
rat glioma = system: rat glioma; parameters: method as in PMID 20036563, PMID 26890114; conditions: against rat glioma; read-out: antitumor activity IC50; cited from earlier work
Pim3 = system: Pim3; parameters: method as in PMID 25575657; conditions: cited from earlier work
Pim2 = system: Pim2; parameters: method as in PMID 25575657; conditions: cited from earlier work
Pim1 = system: Pim1; parameters: method as in PMID 25575657; conditions: cited from earlier work
Ehrlich solid carcinoma = experiment: In vivo cytotoxicity study, Ehrlich solid carcinoma model; parameters: species or system male Swiss albino mice; conditions: i.p. once weekly for 3 weeks, 8b 1 mg/kg, 3b 1.4 mg/kg, doxorubicin 2 mg/kg; for VEGF expression by immunohistochemistry / caspase-3 expression by immunohistochemistry: Ehrlich solid tumour tissue; for Histopathological examination of Ehrlich solid tumour (H&E): mice
Protocol: The National Cancer Institute (Cairo, Egypt) provided the 48 male Swiss albino mice utilised in this study, which ranged in weight from 25 to 30 g. Prior to the experiment, mice were given a week to settle into their new environment. A constant 23 °C temperature, 60% humidity, and a 12/12 light/dark cycle were maintained in stainless steel cages. Each cage housed five mice with a plenty of nourishing food and refreshing water were served. This in vivo study was approved from the ethical committee of the Azhar University, Faculty of Medicine, Egypt.
A female mouse with an 8-day-old ascetic tumour was obtained from the National Cancer Institute on the day of induction, and Ehrlich ascites carcinoma (EAC) cells were isolated from the ascetic fluid of the animal (day 0). Then, regular saline was used to dilute the ascetic fluid (1:10). Each mouse received a subcutaneous injection of 0.2 ml of ascetic fluid containing 2.5 × 10^6 EAC cells in the right thigh of the hind limb to induce Ehrlich solid-phase cancer.
On day 11 following ESC inoculation, tumour formation was observed as a solid mass expanding in the right thigh of each animal. The mice were then randomly divided into four groups (n = 6) • Group (1) acted as the […] control group and mice received an i.p. DMSO (2 mg/kg/once weekly) for 3 weeks. • Group (2) (Doxorubicin Group) mice received an i.p. dose of doxorubicin (2 mg/kg/once weekly) for 3 weeks. • Group (3) mice were given an i.p. dose of 8b compound (1 mg/kg/once weekly) for 3 weeks, • Group (4) mice were given an i.p. dose of 3b compound (1.4 mg/kg/once weekly) for 3 weeks.
Two days after the last dose of therapy, blood was drawn from the mice’s orbital canthus, and serum was separated and stored at −80 °C for upcoming biochemical investigations. Following the cervical dislocation method of euthanasia, tumour samples from each mouse were collected and preserved in neutral buffered formalin at a 10% concentration for immunohistochemistry and histopathology studies. Histological preparations were performed according to the reported method. Slices of Ehrlich tumour were cut to a thickness of 3–4 mm before being fixed in 10% neutral buffered formalin (10% NBF), dehydrated through a series of ethanol solutions, cleaned in xylene, and finally embedded in paraffin. To examine the overall tissue architecture, sections ([…]) thick were cut from paraffin blocks using a microtome and stained with haematoxylin and eosin. We used a Leica microscope (CH9435 Hee56rbrugg) to look at H&E-stained tissue sections (Leica Microsystems, Switzerland).
The avidin–biotin–peroxidase complex (ABC) method was used to do immunohistochemistry on paraffin sections that were put on positively charged slides. Rabbit Anti-VEGF Receptor 2 Polyclonal Antibody (Elabscience Cat# E-AB-63481, Dil.: 1:100) and Rabbit Monoclonal anti-caspase-3 antibody, active (cleaved) form (Sigma Aldrich Catalog # AB3623)[41], were utilised during this IHC assessment. Each group’s sections were treated with the previously specified antibodies, after which the ABC technique reagents (Vectastain ABC-HRP kit, Vector labs) were applied. To locate the antigen–antibody combination, marker expression was stained with diaminobenzidine (DAB, manufactured by Sigma) and labelled with peroxidase. In order to conduct negative controls, non-immune serum was substituted for the primary or secondary antibodies. IHC-stained sections were assessed using a Leica (CH9435 Hee56sbrugg) microscope (Leica Microsystems, Switzerland).
Using one-way analysis of variance (ANOVA) followed by Tukey’s post-hoc test, the difference between experimental groups was analysed. All data are presented as mean ± standard deviation (SD). All comparisons were judged statistically significant when the p values ≤ 0.05. ImageJ (NIH Image J system, Bethesda, MD) was used for the analysis of immunohistochemistry photos.

Pim1 gene = system: Pim1 gene; parameters: method as in PMID 34458233; conditions: quantitative RT-PCR; cited from earlier work
HepG2 = system: HepG2; parameters: method as in PMID 20036563, PMID 26890114; conditions: cell line not clearly printed, probably HepG2; read-out: antitumor activity IC50; cited from earlier work
leukaemia = system: leukaemia; parameters: method as in PMID 20036563, PMID 26890114; conditions: against leukaemia; read-out: antitumor activity IC50; cited from earlier work

COc1cc(-c2ccc(Nc3nc(-c4ccc(Br)cc4)cs3)c(OC)c2)ccc1Nc1nc(-c2ccc(Br)cc2)cs1 [III]
IC50 (rat glioma): 15700 nM

O=C(Nc1cnccc1OC1CCNCC1)c1csc(-c2c(F)cccc2F)n1 [VIIIa]
IC50 (Pim3): 1 nM
IC50 (Pim2): 18 nM
IC50 (Pim1): 1 nM

COc1cccc2c1C(=O)c1c(O)c3c(c(O)c1C2=O)C[C@@](O)(C(=O)CO)C[C@@H]3O[C@H]1C[C@H](N)[C@H](O)[C@H](C)O1 [Doxorubicin, doxorubicin, reference compound]
VEGF expression by immunohistochemistry (Ehrlich solid carcinoma): low expression of VEGF
caspase-3 expression by immunohistochemistry (Ehrlich solid carcinoma): moderate caspase-3 expression
VEGF expression by immunohistochemistry (Ehrlich solid carcinoma; listed as DOX): moderate
caspase-3 expression by immunohistochemistry (Ehrlich solid carcinoma; listed as DOX): positive caspase3 immunoreactivity
Histopathological examination of Ehrlich solid tumour (H&E) (Ehrlich solid carcinoma): small clusters of cancerous cells
Histopathological examination of Ehrlich solid tumour (H&E) (Ehrlich solid carcinoma; listed as doxorubicin): large region of necrotic muscle tissue surrounded by small clusters of cancerous cells

O=C(Nc1cnccc1OC1CCCCC1)c1csc(-c2c(F)cccc2F)n1 [VIIIb]
IC50 (Pim2): 250 nM
IC50 (Pim1): 1 nM

Cc1[nH]/c(=N/N=C2CCC(=N/N=c3/[nH]c(C)c(/N=N/c4ccccc4Cl)s3)CC2)sc1/N=N/c1ccccc1Cl [IXc]
fold of change in Pim1 kinase activity (mRNA expression of Pim1 gene) (Pim1 gene): 0.3 fold

CNc1nc(C)c(/C(C)=N\c2nc(C)c(/N=N/c3ccccc3)s2)s1 [IV]
IC50 (HepG2): 13200 nM

Cc1ccc(/N=N/c2s/c(=N\N=C3CCC(=N/N=c4/[nH]c(C)c(/N=N/c5ccc(C)cc5)s4)CC3)[nH]c2C)cc1 [IXb]
fold of change in Pim1 kinase activity (mRNA expression of Pim1 gene) (Pim1 gene): 0.5 fold

Cc1[nH]/c(=N/N=C2CCC(=N/N=c3/[nH]c(C)c(/N=N/c4ccccc4)s3)CC2)sc1/N=N/c1ccccc1 [IXa]
fold of change in Pim1 kinase activity (mRNA expression of Pim1 gene) (Pim1 gene): 0.4 fold

Cc1sc(=N)n(-c2cccc(-n3c(-c4ccc(Cl)cc4)c(C)sc3=N)c2)c1-c1ccc(Cl)cc1 [VI]
IC50 (leukaemia): 1460 nM
